Experimental data reported in ChEMBL document CHEMBL1201862, “PubChem BioAssay data set” (2004).
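Step 1: Grow cells in 96-well plates. Step 2: Expose to compound for 48 hours at 5 concentrations. Step 3: Interpolate endpoints linearly; if unreached, use highest concentration. GI50 marks 50% less growth.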 The source made the active and inactive calls. No stated cut-off is given here; in the data, active = GI50 up to about 1.1 µM and inactive = higher.

Experiments:
Assay in all cases: inhibition of tumour cell growth, NCI panel, 48 h
[1] = test system: SNB-19
[2] = test system: SK-MEL-5
[3] = test system: RPMI-8226
[4] = test system: TK-10
[5] = test system: SW-620
[6] = test system: HOP-62
[7] = test system: CCRF-CEM
[8] = test system: MCF7
[9] = test system: UACC-257
[10] = test system: NCI/ADR-RES
[11] = test system: T47D
[12] = test system: M14
[13] = test system: NCI-H522
[14] = test system: EKVX
[15] = test system: A549
[16] = test system: CAKI-1
[17] = test system: OVCAR-5
[18] = test system: HOP-92
[19] = test system: SNB-75
[20] = test system: LOX IMVI

With `CC(=O)Nc1ccc2nc(-c3cccc(F)c3)cc(O)c2c1` the GI50 [1] was 4.93 µM (inactive), the GI50 [2] was 5.36 µM (inactive) and the GI50 [3] was 20.6 µM (inactive). The GI50 [4] was > 100 µM (inactive), the GI50 [5] was 13.3 µM (inactive) and the GI50 [6] was 3.15 µM (inactive). For the same compound, the GI50 [7] was 0.731 µM (active), the GI50 [8] was 5.5 µM (inactive) and the GI50 [9] was > 100 µM (inactive). For the same compound, the GI50 [10] was 12.6 µM (inactive), the GI50 [11] was > 100 µM (inactive) and the GI50 [12] was 4.95 µM (inactive). For the same compound, the GI50 [13] was 1.95 µM (inactive), the GI50 [14] was 75 µM (inactive) and the GI50 [15] was 59.4 µM (inactive). The GI50 [16] was 14.5 µM (inactive) and the GI50 [17] was > 52.8 µM (inactive).
In the case of `COc1cc([C@@H]2c3cc4c(cc3[C@@H](OC3OC5COC(C)OC5C(O)C3O)[C@H]3COC(=O)[C@H]23)OCO4)cc(OC)c1O` (stereo partly specified), the GI50 [2] is reported as 5.48 µM (inactive), the GI50 [5] is reported as 6.71 µM (inactive) and the GI50 [18] is reported as 9.2 µM (inactive). For the same compound, the GI50 [6] was 1.97 µM (inactive), the GI50 [7] was 1.4 µM (inactive) and the GI50 [9] was 37.2 µM (inactive). The GI50 [19] was 12.1 µM (inactive), the GI50 [20] was 2.74 µM (inactive) and the GI50 [10] was 65.5 µM (inactive). The GI50 [11] was 0.897 µM (active), the GI50 [13] was 6.03 µM (inactive) and the GI50 [14] was 27.7 µM (inactive). The GI50 [15] was 3.61 µM (inactive), the GI50 [16] was 4.2 µM (inactive) and the GI50 [17] was 25.2 µM (inactive).
For `COC1(OC)CC(CO)(CNc2nc(N)nc(Cl)c2C=O)C1`, the GI50 [1] was 43.8 µM (inactive), the GI50 [2] was > 100 µM (inactive) and the GI50 [3] was > 100 µM (inactive). For the same compound, the GI50 [4] was > 100 µM (inactive), the GI50 [5] was 53.2 µM (inactive) and the GI50 [18] was 14.6 µM (inactive). For the same compound, the GI50 [6] was 42.5 µM (inactive), the GI50 [7] was 27.8 µM (inactive) and the GI50 [8] was 57.7 µM (inactive). The GI50 [9] was 27 µM (inactive), the GI50 [19] was 90.4 µM (inactive) and the GI50 [20] was 18.5 µM (inactive). The GI50 [10] was 31 µM (inactive), the GI50 [13] was 1.99 µM (inactive) and the GI50 [14] was 22.8 µM (inactive). The GI50 [15] was 59 µM (inactive), the GI50 [16] was 42.6 µM (inactive) and the GI50 [17] was > 100 µM (inactive).
For `CCC(C)C1NC(=O)CNC(=O)C2Cc3c([nH]c4cc(O)ccc34)[S+]([O-])CC(NC(=O)CNC1=O)C(=O)NC(CC(=O)O)C(=O)N1CC(O)CC1C(=O)NC(C(C)C(O)CO)C(=O)N2` (stereo unspecified), the GI50 [1] was 1.3 µM (inactive), the GI50 [2] was 2.43 µM (inactive) and the GI50 [3] was 20.3 µM (inactive). For the same compound, the GI50 [5] was 36.2 µM (inactive), the GI50 [18] was 1.68 µM (inactive) and the GI50 [6] was 0.662 µM (active). For the same compound, the GI50 [7] was 6.24 µM (inactive), the GI50 [8] was 5.12 µM (inactive) and the GI50 [9] was 2.44 µM (inactive). The GI50 [19] was 0.918 µM (active), the GI50 [20] was 2.38 µM (inactive) and the GI50 [10] was 3.97 µM (inactive). The GI50 [13] was 0.776 µM (active), the GI50 [14] was 1.98 µM (inactive) and the GI50 [15] was 4.58 µM (inactive). The GI50 [17] was 16.1 µM (inactive).
In the case of `CC(C)=CCC[C@]1(C)CC[C@]2(C)C3CCC(=C(C)C)[C@@H](CCCO)[C@]3(C)CC[C@@]2(C)C1` (stereo partly specified), the GI50 [1] is reported as > 100 µM (inactive), the GI50 [2] is reported as > 100 µM (inactive) and the GI50 [3] is reported as 26.5 µM (inactive). For the same compound, the GI50 [4] was 20.2 µM (inactive), the GI50 [5] was 53.8 µM (inactive) and the GI50 [6] was 88.5 µM (inactive). The GI50 [7] was 36.9 µM (inactive), the GI50 [8] was 24 µM (inactive) and the GI50 [9] was 24 µM (inactive). For the same compound, the GI50 [19] was 0.0243 µM (active), the GI50 [10] was > 100 µM (inactive) and the GI50 [11] was 4.92 µM (inactive). For the same compound, the GI50 [12] was 30.3 µM (inactive), the GI50 [13] was 17.8 µM (inactive) and the GI50 [14] was 46.5 µM (inactive). The GI50 [15] was 52.6 µM (inactive), the GI50 [16] was 95.7 µM (inactive) and the GI50 [17] was 59.4 µM (inactive).
`COCC1OC(OC2OCC3OC4(OCC(O)(C(C)OC)C5OCOC54)OC3C2OC)C(OC)C(O)C1OC1OC(C)C(OC)C(OC2OC(C)C3OC4(CC(O)C(OC5CC(OC6CC(C)([N+](=O)[O-])C(OC)C(C)O6)C(OC(=O)c6c(C)c(Cl)c(O)c(Cl)c6OC)C(C)O5)C(C)O4)OC3(C)C2O)C1O` (stereo unspecified) was tested, and the GI50 [1] was > 100 µM (inactive), the GI50 [2] was > 100 µM (inactive) and the GI50 [3] was > 100 µM (inactive). For the same compound, the GI50 [4] was > 100 µM (inactive), the GI50 [5] was > 100 µM (inactive) and the GI50 [18] was > 100 µM (inactive). The GI50 [6] was > 100 µM (inactive), the GI50 [7] was > 100 µM (inactive) and the GI50 [9] was > 100 µM (inactive). The GI50 [19] was > 100 µM (inactive), the GI50 [20] was > 100 µM (inactive) and the GI50 [10] was > 100 µM (inactive). For the same compound, the GI50 [11] was > 100 µM (inactive), the GI50 [12] was > 100 µM (inactive) and the GI50 [13] was > 100 µM (inactive). For the same compound, the GI50 [14] was > 100 µM (inactive), the GI50 [15] was > 100 µM (inactive) and the GI50 [16] was > 100 µM (inactive). The GI50 [17] was > 100 µM (inactive).
For `CC(=O)OC12c3ccccc3C(c3ccccc31)C1C(=O)N(Nc3ccccc3)C(=O)C12` (stereo unspecified), the GI50 [1] was > 100 µM (inactive), the GI50 [2] was > 100 µM (inactive) and the GI50 [3] was > 100 µM (inactive). The GI50 [4] was > 100 µM (inactive), the GI50 [5] was > 100 µM (inactive) and the GI50 [6] was > 100 µM (inactive). The GI50 [7] was > 100 µM (inactive), the GI50 [8] was > 100 µM (inactive) and the GI50 [9] was > 100 µM (inactive). The GI50 [19] was 92.7 µM (inactive), the GI50 [20] was > 100 µM (inactive) and the GI50 [10] was > 100 µM (inactive). For the same compound, the GI50 [11] was > 100 µM (inactive), the GI50 [12] was > 100 µM (inactive) and the GI50 [14] was > 100 µM (inactive). The GI50 [15] was > 100 µM (inactive), the GI50 [16] was > 100 µM (inactive) and the GI50 [17] was > 100 µM (inactive).
